Patent US10946012B2, “Methods for inducing tumor regression, inhibiting tumor growth, and inducing apoptosis in breast tumors with geranylgeranyltransferase I inhibitors” (H. Lee Moffitt Cancer Center and Research Institute, Inc., priority 2009, dated 2021)
One block for each compound: values may come before it.

Columns and labels:
[1] = tested on: Cdk2; settings: previous report (Adnane et al. 1998); cited from earlier work
[2] = target: T1, GGTase I (Homo sapiens, UniProt P49354+P53609); experiment: In vitro GGTase I activity assay ([3H]GGPP transfer to H-Ras-CVLL); type: biochemical
T1 construct: GGTase I and FTase activities from 60,000×g supernatants of human Burkitt's lymphoma (Daudi) cells; host or cells: Daudi (human Burkitt's lymphoma) cells, 60,000xg supernatant
Experimental: (§1) A brief discussion of exemplary materials and methods follows. In vitro FTase and GGTase I activity assays were performed. GGTase I and FTase activities from 60,000×g supernatants of human Burkitt's lymphoma (Daudi) cells (American Type Culture Collection (ATCC), Rockville, Md.) were assayed as described previously.

[3] = tested on: ErbB2-driven mammary tumors; experiment: Anti-tumor activity in the ErbB2 transgenic mouse model; type: in vivo
Description: (§2) A breeding pair of homozygous FVB/N-Tg (MMTVneu) 202Mul/J mice (JAX #002376, Bar Harbor, Me.) was used to generate a transgenic colony in accordance to IACUC protocols and procedures. Phenotypically, these mice overexpress the receptor tyrosine kinase ErbB2 driven by the MMTV promoter, which results in tumor formation at ˜200 days of age. Once tumors reached sizes above 800 mm^3, osmotic mini-pumps (Alzet, Cupertino, Calif.) were loaded with either vehicle (80% PEG300; 20% DMSO) or GGTI-2418 (100 mg/kg daily) and implanted subcutaneously under the dorsal surface of the mouse, between the shoulder blades. Vehicle or GGTI-2418 was constantly delivered for 14 days, during which tumor volumes were measured and calculated as described above. Tumor biopsies were snap frozen in liquid N2 and stored at −80° C. until further processed. Weighted tumor samples were mixed with the appropriate amount of T-PER® Tissue Protein Extraction Reagent (Pierce, Rockford, Ill.) containing protease inhibitor cocktail, 2 mM PMSF, 2 mM Na3VO4, and 6.4 mg/ml p-nitrophenylphosphate and homogenized with the PCR Tissue Homogenizing Kit (Fisher Scientific). The homogenate was centrifuged at 13,000×g for 30 min at 4° C. and the supernatant was subjected to Western blotting with the indicated antibodies.

[4] = tested on: MDA-MB-231 breast cancer tumors; experiment: Anti-tumor activity in the nude mouse tumor xenograft model; type: in vivo, nude mice; settings: for average tumor size: vehicle 860±87
Experimental: Nude mice (nu/nu, Charles River, Wilmington, Mass.) were maintained in accordance with the Institutional Animal Care and Use Committee (IACUC) procedures and guidelines. MDA-MB-231 cells were harvested via trypsinization, pelleted at 805×g for 5 min, and re-suspended in a 50:50 mixture of sterile PBS and Matrigel (BD Biosciences) at 10×10^6 cells per 100 μl. A volume of 100 μl (˜10×10^6 cells) was injected orthotopically into the upper mammary fat pads of nude mice. The tumor xenografts were monitored by electronic caliper measurements and tumor volume (V) was calculated using the formula V=W^2L/2, where width (W) is […]. When the tumors reached ˜100 mm^3, the animals were randomized and injected intraperiteoneally daily with vehicle (70% DMSO), or 100 mg/kg GGTI-2417 or GGTI-2418, or every third day with GGTI-2418 (200 mg/kg. Tumors were measured every third day for 12-18 days.

[5] = target: T2, FTase (Homo sapiens, UniProt P49354+P49356); experiment: In vitro FTase activity assay ([3H]FPP transfer to H-Ras-CVLS); type: biochemical; settings: read-out: IC50, inhibition of FTase activity
T2 construct: GGTase I and FTase activities from 60,000×g supernatants of human Burkitt's lymphoma (Daudi) cells; host or cells: Daudi (human Burkitt's lymphoma) cells, 60,000xg supernatant
Experimental: as §1

[6] = tested on: p27, Rap1, phospho-Akt; experiment: Western blot of tumor biopsies from ErbB2 transgenic mice; type: in vivo, mouse
Description: as §2

[7] = tested on: MDA-MB-468 breast cancer cells; experiment: Trypan Blue exclusion assay (proliferation, cell death) in MDA-MB-468 cells; type: cell-based, human; settings: 5 nM p27 siRNA; 50 μM GGTI-2417 or 1 μM taxol
Experimental: Human MDA-MB-468 and MDA-MB-231 breast cancer cells and murine NIH 3T3 cells were obtained from the ATCC and cultured in DMEM medium. Human SK-Br3 and BT-474 breast cancer cells (ATCC) were cultured in McCoy's 5a medium and Hybri-Care medium, respectively. Mouse embryonic fibroblast (MEF) cells from p27 wild-type and p27 null mice were grown in DMEM. All media were supplemented with 10% fetal calf serum, 10 units/ml penicillin, and 10 μg/ml streptomycin. Subconfluent cells were treated with different concentrations of GGTI, FTI or DMSO vehicle for specific time periods. After treatment, cells were harvested by trypsinization.
Pre-designed siRNA to p27 (Cat #118714) and the negative control (Cat #4611) were purchased from Ambion (Austin, Tex.). Twenty-four hours before transfection, MDA-MB-468 cells were plated onto twelve-well plates in fresh DMEM medium containing 10% FBS and no antibiotics. Transient transfection of siRNA was carried out using Oligofectamine reagent (Invitrogen, Carlsbad, Calif.), following the manufacturer's instructions. In brief, 5 nM of p27 siRNA or control siRNA were mixed with Opti-MEM medium (Invitrogen) in such a way so that the total volume went to 90 μl, and then complexed with a mixture of 2 μl of Oligofectamine and 8 μl Opti-MEM; the total volume of RNA:Oligofectamine complex was 100 μl. The RNA:Oligofectamine complex was then incubated for 20 min at room temperature before adding to the cells. Before transfection, the old medium was discarded, cells were washed once with fresh Opti-MEM and 400 μl of fresh Opti-MEM placed into each well before adding the RNA:Oligofectamine complex to each well. The final diluted volume on each well was 500 μl. After 8 h, 500 μl DMEM containing 30% FBS was added to each well and cells were further incubated for 40 h.
Adherent cells were harvested by trypsinization and diluted with 0.4% Trypan Blue dye and counted on a hemacytometer. Cells excluding the dye were scored as live cells, whereas cells absorbing the dye were scored as dead cells. Cell proliferation was determined by dividing the number of live cells in the treated sample by the number of live cells in the control, and the degree of cell death was expressed as percentage of dead cells of the total cell number.

SMILES: COC(=O)[C@H](CC(C)C)NC(=O)c1ccc(NC[C@@H](N)CS)cc1-c1cccc2ccccc12 [GGTI-298]
Cdk2 activity [1]: inhibits Cdk2 activity

Ki ([2]; in vitro competition assay, read-out: Ki, competitive inhibition of GGTase I against H-Ras-CVLL protein): 4.4 ± 1.6 nM
IC50 ([2]; in vitro, H-Ras-CVLL, [3H]GGPP, read-out: IC50, inhibition of GGTase I activity): 9.5 ± 2 nM
IC50 [5]: 53000 ± 11000 nM
SMILES: Cc1nc[nH]c1CN1CCN(C(=O)N[C@@H](CC(C)C)C(=O)O)[C@@H](Cc2ccccc2)C1=O [GGTI-2418]
tumor regression, average (S.E.M.) ([3]; 100 mg/kg, 7 mice, 17 tumors): 60±4%
tumor decrease, representative example ([3]; 100 mg/kg/day, osmotic mini-pump): 76%
tumor growth inhibition ([4]; 100 mg/kg daily i.p.): 94%
average tumor size ([4]; 100 mg/kg daily i.p.): 139±17 mm^3
tumor growth inhibition ([4]; 200 mg/kg every 3rd day i.p.): 77%
average tumor size ([4]; 200 mg/kg every 3rd day i.p.): 276±26 mm^3
S473 phosphorylation of Akt in tumors ([6]; pre vs post treatment biopsies): dramatic decrease
geranylgeranylation of Rap1 in tumors ([6]; pre vs post treatment biopsies): inhibited the geranylgeranylation of Rap1
change of p27 in post-treatment tumor samples (densitometry) ([6]; vehicle 0.63±0.19 fold, p=0.03): 2.68±0.63 fold

SMILES: CC(=O)O[C@H]1C(=O)[C@@]2(C)[C@H]([C@H](OC(=O)c3ccccc3)[C@]3(O)C[C@H](OC(=O)[C@H](O)[C@@H](NC(=O)c4ccccc4)c4ccccc4)C(C)=C1C3(C)C)[C@]1(OC(C)=O)CO[C@@H]1C[C@@H]2O [taxol, reference compound]
tumor cell death in the presence of p27 siRNA [7]: could still die
